Results reported in patent US20250356957A1, “EMULATOR OF SUBCUTANEOUS ABSORPTION AND RELEASE” (UNIVERSITY OF KANSAS, priority 2022, published 2025).

Assay: ESCAR drug release tests for acetaminophen solution (factor screening)
Assay type: in vitro ADME
Details: center position injection, 10 mg/mL solution
Description: Acetaminophen solution (10 mg/mL) and the subcutaneous chamber (Version 1; FIG. 2C) were used across different runs. Both the “lymphatic circulation” and “blood circulation” chambers were filled with 75 mL of PBS (pH 7.4), and the subcutaneous chamber was filled with 2.8 mL of HA/PBS solution. At the surrounding areas of the interfaces, a layer of mounting tape was assembled to prevent liquid leakage. Sequentially, the “subcutaneous”/“blood circulation” interface was assembled with a SpectraPor® dialysis membrane (MWCO: 50 kDa), and the “subcutaneous”/“lymphatic circulation” interface was assembled with a SpectraPor® dialysis membrane (MWCO: 300 kDa). All membranes were pre-soaked in DI water for at least 1 h before use. The drug release tests were conducted at 34° C. in a convective oven, with mild magnetic stirring in the “blood circulation” and “lymphatic circulation” chambers. […] A 18-run full factorial experimental design was employed to evaluate three factors, HA concentration (three levels: 2.5, 5, 10 mg/mL), injection volume (three levels: 0.25, 0.5, 1 mL), and injection position/needle tip position to the membrane at the “subcutaneous”/“blood circulation” interface (two levels: 0.2, 0.5 cm). At the pre-set time points, 1.5 mL of aliquots were withdrawn from the “blood circulation” chamber with the replacement of the same volume of PBS. Each run was conducted in triplicate.

SMILES: CC(=O)Nc1ccc(O)cc1 [acetaminophen, Acetaminophen]
- release fraction (%) at 8-hr (2.5 mg/mL HA solution): ~60%
- release fraction (%) at 8-hr (5 mg/mL HA solution): ~30%
- release fraction (%) at 8-hr (10 mg/mL HA solution): ~15%
- release fraction (%) at 8-hr (subcutaneous medium PBS): ~80%
